Experimental data: the NIST ThermoML archive (doi:10.1016/j.fluid.2013.05.012)
Where “and” joins values, the source holds several entries; their conditions need not be identical. Equal values may be shown once. ± gives the expanded uncertainty stated by the source.

Settings: 101.33 kPa, Liquid; for mass density: Vibrating tube method; for viscosity: Vibrating wire viscometry

Compound	mass density (288.15 K)	viscosity (293.14 K)	mass density (293.16 K)	mass density (298.16 K)	viscosity (298.18 K)	viscosity (303.13 K)	mass density (303.15 K)	mass density (313.15 K)	mass density (318.15 K)	viscosity (323.1 K)	mass density (323.15 K)	mass density (328.15 K)	mass density (293.15 K)	mass density (295.65 K)	mass density (298.15 K)	viscosity (298.2 K)	mass density (300.65 K)	mass density (305.65 K)	mass density (308.15 K)	mass density (310.65 K)	further results
CCCCCC[n+]1ccn(C)c1.O=S(=O)([N-]S(=O)(=O)C(F)(F)F)C(F)(F)F	1381.24 ± 1.1 kg/m3	90.27 ± 2.1 mPa·s	1376.63 ± 1.1 kg/m3	1372.04 ± 1.1 kg/m3	70.9 ± 1.5 mPa·s and 70.95 ± 1.5 mPa·s	56.93 ± 1.2 mPa·s	1367.46 ± 1.1 kg/m3	1358.32 ± 1.1 kg/m3	1353.76 ± 1.1 kg/m3	26.73 ± 0.56 mPa·s	1349.23 ± 1.1 kg/m3	1344.72 ± 1.1 kg/m3									mass density (303.16 K): 1367.45 ± 1.1 kg/m3; viscosity (308.13 K): 46.15 ± 0.97 mPa·s; mass density (308.16 K): 1362.88 ± 1.1 kg/m3; viscosity (313.09 K): 38.05 ± 0.8 mPa·s; viscosity (318.1 K): 31.74 ± 0.67 mPa·s; mass density (318.16 K): 1353.77 ± 1.1 kg/m3; mass density (323.16 K): 1349.24 ± 1.1 kg/m3
CCOS(=O)(=O)[O-].CCn1cc[n+](C)c1 [1-ethyl-3-methylimidazolium ethyl sulfate]	1245.23 ± 1.1 kg/m3	128.2 ± 3.2 mPa·s					1235.08 ± 1.1 kg/m3 and 1235.06 ± 1.1 kg/m3		1224.95 ± 1.1 kg/m3	35.37 ± 0.74 mPa·s	1221.6 ± 1.1 kg/m3	1218.26 ± 1.1 kg/m3	1241.85 ± 1.1 kg/m3	1240.17 ± 1.1 kg/m3 and 1240.15 ± 1.1 kg/m3	1238.47 ± 1.1 kg/m3 and 1238.45 ± 1.1 kg/m3	98.63 ± 2.3 mPa·s	1236.77 ± 1.1 kg/m3 and 1236.76 ± 1.1 kg/m3	1233.38 ± 1.1 kg/m3	1231.69 ± 1.1 kg/m3	1230.01 ± 1.1 kg/m3	mass density (288.16 K): 1245.23 ± 1.1 kg/m3; mass density (290.64 K): 1243.55 ± 1.1 kg/m3; mass density (290.65 K): 1243.55 ± 1.1 kg/m3; mass density (293.14 K): 1241.85 ± 1.1 kg/m3; viscosity (298.19 K): 98.87 ± 2.3 mPa·s; viscosity (303.16 K): 77.83 ± 1.7 mPa·s; viscosity (308.19 K): 62.54 ± 1.3 mPa·s; mass density (310.64 K): 1230.01 ± 1.1 kg/m3; mass density (313.14 K): 1228.32 ± 1.1 kg/m3; viscosity (313.14 K): 51.1 ± 1.1 mPa·s; mass density (315.65 K): 1226.63 ± 1.1 kg/m3 and 1226.64 ± 1.1 kg/m3; viscosity (318.14 K): 42.22 ± 0.89 mPa·s; mass density (320.64 K): 1223.27 ± 1.1 kg/m3 and 1223.28 ± 1.1 kg/m3; mass density (323.14 K): 1221.6 ± 1.1 kg/m3; mass density (325.64 K): 1219.92 ± 1.1 kg/m3; mass density (325.65 K): 1219.92 ± 1.1 kg/m3
CCOS(=O)(=O)[O-].CC[n+]1cccc(C)c1 [1-ethyl-3-methylpyridinium ethylsulfate]			1225.08 ± 1.1 kg/m3	1221.8 ± 1.1 kg/m3	133.7 ± 3.4 mPa·s	102.1 ± 2.4 mPa·s	1218.5 ± 1.1 kg/m3	1211.91 ± 1.1 kg/m3	1208.63 ± 1.1 kg/m3 and 1208.64 ± 1.1 kg/m3				1225.08 ± 1.1 kg/m3	1223.43 ± 1.1 kg/m3	1221.79 ± 1.1 kg/m3	133.8 ± 3.5 mPa·s	1220.15 ± 1.1 kg/m3	1216.85 ± 1.1 kg/m3	1215.21 ± 1.1 kg/m3 and 1215.2 ± 1.1 kg/m3	1213.56 ± 1.1 kg/m3	viscosity (293.13 K): 181.5 ± 5.2 mPa·s; mass density (295.64 K): 1223.43 ± 1.1 kg/m3; mass density (300.66 K): 1220.15 ± 1.1 kg/m3; mass density (303.14 K): 1218.51 ± 1.1 kg/m3; mass density (305.64 K): 1216.85 ± 1.1 kg/m3; viscosity (308.16 K): 79.18 ± 1.7 mPa·s; mass density (310.66 K): 1213.56 ± 1.1 kg/m3; viscosity (313.14 K): 62.73 ± 1.3 mPa·s; mass density (315.65 K): 1210.27 ± 1.1 kg/m3; mass density (315.66 K): 1210.27 ± 1.1 kg/m3; viscosity (318.08 K): 50.65 ± 1.1 mPa·s; mass density (320.65 K): 1207 ± 1.1 kg/m3
